Source: US6525022B1, “Receptor specific atrial natriuretic peptides” (Genentech, Inc., priority 1993, dated 2003)
Where two headings read alike, the source gives them in different places. Each block holds one molecule with its values, some of them ahead of it. Where a SMILES comes first, the peptide text is derived from it. Bridges are numbered along the chain shown (N, C = ends). Where no end group is shown, it is not given here. [ ]: non-standard residue; d: D form. Cha = N[C@@H](CC1CCCCC1)C(=O)O; hCys = N[C@@H](CCS)C(=O)O

Legend:
[1] = target: human NEP (hNEP), endopeptidase 24.11 (Homo sapiens, UniProt P08473); experiment: Degradation of ANF variants by human NEP, half-life by HPLC
Description: The half-life of various ANF variants was measured according to the following procedure.
ANF Solution: An accurately weighed amount of ANF or variant thereof was diluted with HEPES buffer (5 ml of 1 M HEPES Buffer and 0.1 ml of Tween 20 diluted to a 100 ml volume with DI water) to make a 0.5 mg/ml solution.
hNEP/HEPES Solution: 7.5 μl of a 1 mg/ml solution of hNEP (see U.S. Pat. No. 4,960,700) is dissolved in 992.5 μl of HEPES buffer (as described above) and vortex mixed. The resulting mixture is stored in a silylated Eppendorf tube and periodically checked for activity against an ANF peptide standard.
Assay conditions: 150 μl of an ANF solution in the HEPES buffer is diluted with 820 μl HEPES buffer and vortex mixed (1 sec). Careful note of the time is taken as 30 μl of the hNEP/HEPES solution is added and the solution is vortex mixed for 1 sec. and analyzed by periodic removal of constant volume aliquots by the HPLC autosampler. A 2.5 cm×50 cm, C-18 reversed-phase column (15 micron, 300 Å]) was used and elution was achieved by using a shallow gradient of increasing acetonitrile. The elution conditions consisted of a 10% to 50% acetonitrile (containing 0.1% TFA) gradient at 0.5% min.^−1. The aqueous phase was 0.1% TFA in water. The peak area of the ANP peptide is recorded at these periodic intervals and a half-life is determined from these values.

[2] = target: T1, human natriuretic peptide clearance receptor-C (human, UniProt P17342 27-541); experiment: competition binding, Table I; tracer and receptor format not given
T1 construct: whole, on cells; also called hNPR-C; human NPR-C
T1 sequence (looked up): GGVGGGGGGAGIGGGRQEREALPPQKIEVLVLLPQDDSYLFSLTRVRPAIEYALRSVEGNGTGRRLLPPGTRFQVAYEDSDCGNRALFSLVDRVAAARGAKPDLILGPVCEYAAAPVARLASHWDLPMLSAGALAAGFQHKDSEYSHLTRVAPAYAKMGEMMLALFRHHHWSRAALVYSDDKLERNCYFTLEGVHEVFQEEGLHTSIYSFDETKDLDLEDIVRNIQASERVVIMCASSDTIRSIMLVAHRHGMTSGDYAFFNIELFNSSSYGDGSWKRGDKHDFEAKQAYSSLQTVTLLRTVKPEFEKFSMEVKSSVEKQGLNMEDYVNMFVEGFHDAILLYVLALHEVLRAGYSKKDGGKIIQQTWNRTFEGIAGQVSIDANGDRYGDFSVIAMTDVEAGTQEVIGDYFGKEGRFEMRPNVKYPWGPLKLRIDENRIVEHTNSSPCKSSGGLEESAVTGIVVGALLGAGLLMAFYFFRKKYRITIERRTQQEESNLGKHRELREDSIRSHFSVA

[3] = target: T2, human natriuretic peptide receptor-A (human, UniProt P16066 33-1061); experiment: as above
T2 construct: whole, on cells; also called hNPR-A; human NPR-A
T2 sequence (looked up): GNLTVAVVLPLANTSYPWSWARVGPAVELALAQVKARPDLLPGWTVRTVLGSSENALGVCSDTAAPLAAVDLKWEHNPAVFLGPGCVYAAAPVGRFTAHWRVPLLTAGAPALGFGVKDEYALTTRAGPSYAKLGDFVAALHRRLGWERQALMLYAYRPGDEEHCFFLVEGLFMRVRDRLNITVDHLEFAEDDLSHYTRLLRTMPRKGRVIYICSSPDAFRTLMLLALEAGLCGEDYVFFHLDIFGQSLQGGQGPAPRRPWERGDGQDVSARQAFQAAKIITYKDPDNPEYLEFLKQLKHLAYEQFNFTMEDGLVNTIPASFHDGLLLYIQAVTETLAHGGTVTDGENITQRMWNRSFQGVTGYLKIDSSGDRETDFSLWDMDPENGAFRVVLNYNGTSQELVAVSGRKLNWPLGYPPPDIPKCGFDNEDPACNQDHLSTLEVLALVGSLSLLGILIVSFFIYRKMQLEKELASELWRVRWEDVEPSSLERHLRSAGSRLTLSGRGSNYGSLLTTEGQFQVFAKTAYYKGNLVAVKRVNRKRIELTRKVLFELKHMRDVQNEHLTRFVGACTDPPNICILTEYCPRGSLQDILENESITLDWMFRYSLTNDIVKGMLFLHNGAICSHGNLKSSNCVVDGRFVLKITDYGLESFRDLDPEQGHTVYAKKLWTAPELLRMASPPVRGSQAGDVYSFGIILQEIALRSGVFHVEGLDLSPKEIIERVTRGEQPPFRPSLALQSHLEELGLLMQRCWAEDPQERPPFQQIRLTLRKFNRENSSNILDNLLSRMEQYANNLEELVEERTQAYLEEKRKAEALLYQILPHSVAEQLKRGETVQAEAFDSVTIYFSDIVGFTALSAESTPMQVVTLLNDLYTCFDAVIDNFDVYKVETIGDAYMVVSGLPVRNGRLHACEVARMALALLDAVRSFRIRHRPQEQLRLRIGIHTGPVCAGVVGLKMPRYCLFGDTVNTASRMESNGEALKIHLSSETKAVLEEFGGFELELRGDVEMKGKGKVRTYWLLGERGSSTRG

[4] = isolated human NEP (endopeptidase 24.11) in HEPES buffer, Half-Life (min.), FIG. 6: ANF variants 0.5 mg/ml, NEP 0.225 mg/ml
[5] = isolated human NEP (endopeptidase 24.11) in HEPES buffer, Half-Life (min.), FIG. 7: ANF variants 32 nM/ml, NEP 0.45 μg/ml

human NEP (hNEP), endopeptidase 24.11, sequence (P08473 whole entry): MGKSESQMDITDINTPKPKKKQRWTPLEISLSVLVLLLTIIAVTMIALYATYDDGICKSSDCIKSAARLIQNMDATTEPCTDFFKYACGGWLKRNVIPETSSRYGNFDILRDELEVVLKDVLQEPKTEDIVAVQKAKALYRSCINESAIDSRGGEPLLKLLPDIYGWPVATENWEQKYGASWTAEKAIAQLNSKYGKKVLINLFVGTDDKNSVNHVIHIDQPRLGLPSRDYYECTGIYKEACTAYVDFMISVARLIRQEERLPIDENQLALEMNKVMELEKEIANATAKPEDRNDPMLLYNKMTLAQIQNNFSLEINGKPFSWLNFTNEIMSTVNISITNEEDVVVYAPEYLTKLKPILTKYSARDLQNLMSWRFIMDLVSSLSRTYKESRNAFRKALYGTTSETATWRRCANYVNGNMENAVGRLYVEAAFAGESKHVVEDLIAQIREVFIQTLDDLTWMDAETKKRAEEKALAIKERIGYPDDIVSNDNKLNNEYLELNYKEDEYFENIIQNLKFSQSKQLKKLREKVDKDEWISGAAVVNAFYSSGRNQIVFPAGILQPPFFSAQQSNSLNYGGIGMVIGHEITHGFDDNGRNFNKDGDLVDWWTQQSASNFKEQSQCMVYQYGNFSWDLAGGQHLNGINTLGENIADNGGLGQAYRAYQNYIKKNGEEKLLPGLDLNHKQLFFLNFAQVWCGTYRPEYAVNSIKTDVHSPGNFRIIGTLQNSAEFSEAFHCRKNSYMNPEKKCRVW

half-life at 0.5 mg/ml [1, 4]: 1.55 h
Molecule: CC[C@H](C)[C@@H]1NC(=O)[C@H](CCCNC(=N)N)NC(=O)[C@H](CC(=O)O)NC(=O)[C@H](CCSC)NC(=O)[C@H](CO)NC(=O)CNC(=O)[C@H]([C@@H](C)O)NC(=O)[C@H](Cc2ccccc2)NC(=O)[C@@H](NC(=O)[C@H](CO)NC(=O)[C@H](CO)NC(=O)[C@H](CCCNC(=N)N)NC(=O)[C@H](CCCNC(=N)N)NC(=O)[C@H](CC(C)C)NC(=O)[C@@H](N)CO)CSSC[C@@H](C(=O)N[C@@H](CC(N)=O)C(=O)N[C@@H](CO)C(=O)N[C@@H](Cc2ccccc2)C(=O)N[C@@H](CCCNC(=N)N)C(=O)N[C@@H](Cc2ccc(O)cc2)C(=O)O)NC(=O)CNC(=O)[C@H](CC(C)C)NC(=O)CNC(=O)[C@H](CO)NC(=O)[C@H](CCC(N)=O)NC(=O)[C@H](C)NC(=O)CNC1=O [ANF 50] (H-SLRRSSCFTGSMDRIGAQSGLGCNSFRY-OH; disulfide 7-23; C-terminus assumed)

Molecule: CC[C@H](C)[C@@H]1NC(=O)[C@H](CCCNC(=N)N)NC(=O)[C@H](CC(=O)O)NC(=O)[C@H]([C@@H](C)CC)NC(=O)[C@H](CCCNC(=N)N)NC(=O)CNC(=O)CNC(=O)[C@H](Cc2ccccc2)NC(=O)[C@@H](NC(=O)[C@H](CO)NC(=O)[C@H](CO)NC(=O)[C@H](CCCNC(=N)N)NC(=O)[C@H](CCCNC(=N)N)NC(=O)[C@H](CC(C)C)NC(=O)[C@H](CO)NC(=O)[C@H](CCCNC(=N)N)NC(=O)[C@@H]2CCCN2C(=O)[C@H](C)NC(=O)[C@@H](N)[C@@H](C)O)CSSC[C@@H](C(=O)N[C@@H](CC(N)=O)C(=O)N[C@@H](CO)C(=O)N[C@@H](Cc2ccccc2)C(=O)N[C@@H](CCCNC(=N)N)C(=O)N[C@@H](Cc2ccc(O)cc2)C(=O)O)NC(=O)CNC(=O)[C@H](CC(C)C)NC(=O)CNC(=O)[C@H](CO)NC(=O)[C@H](CCC(N)=O)NC(=O)[C@H](C)NC(=O)[C@H](CCCNC(=N)N)NC1=O [ANF 23] (H-TAPRSLRRSSCFGGRIDRIRAQSGLGCNSFRY-OH; disulfide 11-27)
half-life at 0.5 mg/ml [1]: 12.3 h

Molecule: CC[C@H](C)[C@@H]1NC(=O)[C@H](CCCNC(=N)N)NC(=O)[C@H](CC(=O)O)NC(=O)[C@H]([C@@H](C)CC)NC(=O)[C@H](CCCNC(=N)N)NC(=O)CNC(=O)CNC(=O)[C@H](Cc2ccccc2)NC(=O)[C@@H](NC(=O)[C@H](CO)NC(=O)[C@H](CO)NC(=O)[C@H](CCCNC(=N)N)NC(=O)[C@H](CCCNC(=N)N)NC(=O)[C@H](CC(C)C)NC(=O)[C@@H](N)CO)CSSC[C@@H](C(=O)N[C@@H](CC(N)=O)C(=O)N[C@@H](CO)C(=O)N[C@@H](Cc2ccccc2)C(=O)N[C@@H](CCCNC(=N)N)C(=O)N[C@@H](Cc2ccc(O)cc2)C(=O)O)NC(=O)CNC(=O)[C@H](CC(C)C)NC(=O)CNC(=O)[C@H](CO)NC(=O)[C@H](CCC(N)=O)NC(=O)[C@H](C)NC(=O)[C@H](CCCNC(=N)N)NC1=O [ANF 24]
half-life at 0.5 mg/ml [1, 4]: 10 h

half-life at 32 nM/ml [1, 5]: 2.97 h
Molecule: CC[C@H](C)[C@@H]1NC(=O)[C@H](CCCNC(=N)N)NC(=O)[C@H](CC(=O)O)NC(=O)[C@H]([C@@H](C)CC)NC(=O)[C@H](CO)NC(=O)CNC(=O)[C@H]([C@@H](C)O)NC(=O)[C@H](Cc2ccccc2)NC(=O)[C@@H](NC(=O)[C@H](CO)NC(=O)[C@H](CO)NC(=O)[C@H](CCCNC(=N)N)NC(=O)[C@H](CCCNC(=N)N)NC(=O)[C@H](CC(C)C)NC(=O)[C@@H](N)CO)CSSC[C@@H](C(=O)N[C@@H](CC(N)=O)C(=O)N[C@@H](CO)C(=O)N[C@@H](Cc2ccccc2)C(=O)N[C@@H](CCCNC(=N)N)C(=O)N[C@@H](Cc2ccc(O)cc2)C(=O)O)NC(=O)CNC(=O)[C@H](CC(C)C)NC(=O)CNC(=O)[C@H](CO)NC(=O)[C@@H]2CCCN2C(=O)[C@H](C)NC(=O)[C@H](CCCNC(=N)N)NC1=O [ANF 31] (H-SLRRSSCFTGSIDRIRAPSGLGCNSFRY-OH; disulfide 7-23; C-terminus assumed)

half-life at 32 nM/ml [1, 5]: 7.95 h
Molecule: CC[C@H](C)[C@@H]1NC(=O)[C@H](CCCNC(=N)N)NC(=O)[C@H](CC(=O)O)NC(=O)[C@H]([C@@H](C)CC)NC(=O)[C@H](CO)NC(=O)CNC(=O)[C@H]([C@@H](C)O)NC(=O)[C@H](CC2CCCCC2)NC(=O)[C@@H](NC(=O)[C@H](CO)NC(=O)[C@H](CO)NC(=O)[C@H](CCCNC(=N)N)NC(=O)[C@H](CCCNC(=N)N)NC(=O)[C@H](CC(C)C)NC(=O)[C@@H](N)CO)CSSC[C@@H](C(=O)N[C@@H](CC(N)=O)C(=O)N[C@@H](CO)C(=O)N[C@@H](Cc2ccccc2)C(=O)N[C@@H](CCCNC(=N)N)C(=O)N[C@@H](Cc2ccc(O)cc2)C(=O)O)NC(=O)CNC(=O)[C@H](CC(C)C)NC(=O)CNC(=O)[C@H](CO)NC(=O)[C@H](CCC(N)=O)NC(=O)[C@H](C)NC(=O)[C@H](CCCNC(=N)N)NC1=O [ANF 79] (H-SLRRSSC[Cha]TGSIDRIRAQSGLGCNSFRY-OH; disulfide 7-23; C-terminus assumed)

half-life at 32 nM/ml ([1]; isolated human NEP (endopeptidase 24.11) in HEPES buffer, Half-life, FIG. 8: 32 nM/ml peptide, 0.075 μg/ml NEP): 32.1 h | half-life at 32 nM/ml ([1]; isolated human NEP (endopeptidase 24.11) in HEPES buffer, Half-life, FIG. 8: 32 nM/ml peptide, 0.15 μg/ml NEP): 4.48 h
Molecule: CC[C@H](C)[C@@H]1NC(=O)[C@H](CCCNC(=N)N)NC(=O)[C@H](CC(=O)O)NC(=O)[C@H](CCSC)NC(=O)[C@@H]2CCCN2C(=O)[C@H](CCCNC(=N)N)NC(=O)[C@H](CCC(=O)O)NC(=O)[C@H](Cc2ccccc2)NC(=O)[C@@H](NC(=O)[C@H](CO)NC(=O)[C@H](CO)NC(=O)[C@H](CCCNC(=N)N)NC(=O)[C@H](CCCNC(=N)N)NC(=O)[C@H](CC(C)C)NC(=O)[C@@H](N)CO)CSSC[C@@H](C(=O)N[C@@H](CC(N)=O)C(=O)N[C@@H](CO)C(=O)N[C@@H](Cc2ccccc2)C(=O)N[C@@H](CCCNC(=N)N)C(=O)N[C@@H](Cc2ccc(O)cc2)C(=O)O)NC(=O)CNC(=O)[C@H](CC(C)C)NC(=O)CNC(=O)[C@H](CO)NC(=O)[C@H](CCC(N)=O)NC(=O)[C@H](C)NC(=O)CNC1=O [ANF 51] (H-SLRRSSCFERPMDRIGAQSGLGCNSFRY-OH; disulfide 7-23; C-terminus assumed)

half-life at 32 nM/ml [1, 5]: 3.32 h
Molecule: CC[C@H](C)[C@@H]1NC(=O)[C@H](CO)NC(=O)[C@H](CC(=O)O)NC(=O)[C@H]([C@@H](C)CC)NC(=O)[C@H](CCCNC(=N)N)NC(=O)CNC(=O)CNC(=O)[C@H](Cc2ccccc2)NC(=O)[C@@H](NC(=O)[C@H](CO)NC(=O)[C@H](CO)NC(=O)[C@H](CCCNC(=N)N)NC(=O)[C@H](CCCNC(=N)N)NC(=O)[C@H](CC(C)C)NC(=O)[C@@H](N)CO)CSSC[C@@H](C(=O)N[C@@H](CC(N)=O)C(=O)N[C@@H](CO)C(=O)N[C@@H](Cc2ccccc2)C(=O)N[C@@H](CCCNC(=N)N)C(=O)N[C@@H](Cc2ccc(O)cc2)C(=O)O)NC(=O)CNC(=O)[C@H](CC(C)C)NC(=O)CNC(=O)[C@H](CO)NC(=O)[C@H](CCC(N)=O)NC(=O)[C@H](C)NC(=O)[C@H](CCCNC(=N)N)NC1=O [ANF 25] (H-SLRRSSCFGGRIDSIRAQSGLGCNSFRY-OH; disulfide 7-23 (inferred); N-terminus and C-terminus assumed)

IC50 [2]: 10000 nM | IC50 [3]: 29.4 nM
Molecule: SLRRSSC[dS]FTGSIDRIRAQSGLGCNSFRY (disulfide 7-24) [ANF 74]

IC50 [3]: 3.3 nM
Molecule: SLDRSSCFTGSLDSIRA[hCys]SGLGCNSFR[hCys] (disulfide 18-28, 7-23) [ANF 70]

IC50 [2]: 2000 nM | IC50 [3]: 2.08 nM
Molecule: SLRRSSC[dA]FTGSIDRIRAQSGLGCNSFRY (disulfide 7-24) [ANF 75]
